# Experimental data published in patent US20110288314A1, “PHLOROGLUCINOL DERIVATIVES FROM ECKLONIA CAVA HAVING ANTI-HIV-1 INHIBITORY ACTIVITY” (priority 2008, published 2011).
# Key:
# [1] = target: T1, HIV-1 reverse transcriptase (Human immunodeficiency virus type 1 group M subtype B, UniProt P04585); experiment: Reverse transcriptase activity assay (fluorescence RT kit, viral lysate); assay type: biochemical; set-up: HIV-1 RT enzyme activity inhibited: dose or concentration left out as unconfirmed; settings: RT from cell culture supernatant
# T1 construct: HIV-1 reverse transcriptase in the viral lysate; endogenous in cells; host or cells: lysate of virus particles produced by infected cell culture (viral lysate)
# Procedure: The activity of HIV-1 reverse transcriptase in the viral lysate was evaluated using a fluorescence RT assay kit (InvitroGen) according to the manufacturer's protocol. Briefly, 20 μl of reaction mixture containing a template/primer hybrid, poly(A)/d(T)16, and dTTP as a triphosphate substrate was added to the wells of amicrotiter plate and mixed with 5 μl of viral lysate containing various concentrations of 6,6′-bieckol. After incubation at 37° C. for 1 h, the reaction was stopped by the addition of 2 μl of 200 mM EDTA to each reaction. Fluorescence intensity was measured at 480 nm (excitation) and 520 nm (emission) with a GENiosmicroplate reader (Tecan Austria GmbH, Austria) after the addition of 173 μl of fluorescent PicoGreenreagent, which selectively binds to dsDNA or DNA-RNA heteroduplexes over single-stranded nucleic acids or free nucleotides.
# [2] = system: CEM-SS or H9 cells; experiment: Cell viability (MTT) assay; assay type: cell-based, human; settings: up to 500 μM, 72 h
# Procedure: H9 and H9/HIV-1IIIB cell lines were obtained through American Type of Culture Collection (Manassas, Va., USA). CEM-SS cell line from Dr. P. Nara and C8166 cell line from Dr. G. Farrar were provided by the EU Programme EVA Centre for AIDS Reagents, NIBSC, UK. CEM-SS, C8166, H9 and H9/HIV-1IIIB cell lines were grown in RPMI 1640 medium supplemented with 10% FBS, 100 μg of streptomycin per ml and 100 U of penicillin per ml. HIV-1IIIB virus stock was obtained from the culture supernatant of chronically infected H9/HIV-1IIIB cells. Cell-free virus was harvested from the supernatants by centrifugation and filtration through 0.22 μM filter. The virus stocks were stored as small aliquots at […] until use.
# The cytotoxic concentrations of 6,6′-bieckol were determined by MTT assay, a method based on the reduction of 3-(4,5-dimethylthiazol-2-yl)-2,5-diphenyltetrazolium bromide (MTT). Four hundreds of microliters of medium containing CEM-SS or H9 cells were cultured into a 48-well plate at a density of 10^5 cells/ml. The plate was incubated overnight and treated with 100 μl of RPMI 1640 medium with/without 6,6′-bieckol. After 72 h of incubation, 100 μl of 500 μg/ml MTT was added to each well and the plate was incubated for another 4 h at 37° C. […] Optical density was measured at 540 nm with a microplate reader. […]
# [3] = system: HIV-1IIIB; experiment: HIV-1 p24 antigen capture ELISA in H9 cells; assay type: cell-based; set-up: dose or concentration left out as unconfirmed; settings: ELISA (FIG. 1D)
# Procedure: H9 cells (3×10^6 cells/ml) were incubated in the presence or absence of HIV-1IIIB for 1 h at 37° C. Cells were washed to remove unbound viruses and resuspended at 3×10^5 cells/ml in culture medium. Aliquots of 1 ml were placed in a 24-well culture plate containing an equal volume of medium with/without 6,6′-bieckol.
# AZT was treated as positive control. In order to determine the amount of virus released to the medium, HIV-1 p24 antigen capture ELISA was carried out with a commercial kit (Perkin-Elmer Life Sciences, Boston, Mass.) according to the manufacturer's instructions.
# [4] = system: HIV-1IIIB; experiment: Co-cultivation assay (C8166 cells with H9 cells chronically infected with HIV-1IIIB); assay type: cell-based; settings: highest concentration treated; C8166 + H9/HIV-1IIIB, 72 h
# Procedure: 3×10^4 C8166 cells were pre-treated with various concentrations of 6,6′-bieckol for 2 h and co-cultured with 3×10^3 H9 cells chronically infected with HIV-1IIIB at 37° C. in a humidified atmosphere of 5% CO2. After 72 h of incubation, the number of syncytia formed was counted using a microscope.
# [5] = system: HIV-1IIIB; experiment: Western blot analysis of p24 / gag proteins in HIV-1IIIB infected H9 cells; assay type: cell-based
# Procedure: 1×10^6 cells/ml H9 cells were cultured in cell culture plates. Following sample treatment, plates were incubated for 2 h and infected with HIV-1IIIB at 200 CCID50. After 96 h of incubation at 37° C., cells were pelleted at 1000 rpm for 10 min and supernatant was harvested. The cells were washed 3 times with PBS and lysed with 500 μl of lysis buffer containing 50 mM Tris-HCl (pH 7.5), 0.4% Nonidet P-40, 120 mM NaCl, 1.5 mM MgCl2, 2 mM phenylmethylsulfonyl fluoride, 80 μg/ml leupeptin, 3 mM NaF, and 1 mM DTT. Hundred micrograms of total protein was used for immunoblot analysis.
# Culture supernatant containing virus was filtered through 0.22 μm filter, mixed with 30% polyethylene glycol (PEG) (50% v/v) with 0.4 M NaCl, and virus particles were pelleted at 15000 rpm for 45 min. The viral pellets were lysed, resuspended in SDS sample buffer and equal volume of viral lysates (20 μl) was loaded onto SDS gel. The proteins were subjected to denaturating SDSAGE in 25 mM Tris, 192 mM glycine, 0.1% SDS with a 4% stacking, and 10% separating gel. Separated proteins were transferred onto a nitrocellulose membrane, blocked in Tris buffered saline containing 0.1% (v/v) Tween 20 (TBS-T) and 5% skim milk powder. The membrane was probed with mouse anti-p24 monoclonal antibody (1:500, SantaCruz) and horseradish peroxidase (HRP)-conjugated anti-mouse IgG secondary antibody (1:5000, SantaCruz). […]
smiles,measurement,setting,value
"Oc1cc(O)cc(Oc2c(O)cc(O)c3c2Oc2c(O)cc(O)c(-c4c(O)cc(O)c5c4Oc4c(O)cc(O)c(Oc6cc(O)cc(O)c6)c4O5)c2O3)c1 [6,6′-bieckol]",inhibition at 1 µM,"[1]; 1 μM, read-out: HIV-1 RT enzyme inhibition",50.5%
same,HIV-1 RT enzyme activity inhibited,[1],96.33%
same,cytotoxicity,[2],no cytotoxicity
same,inhibition of production of p24 antigen,[3],more than 90%
same,inhibition of syncytia formation in co-cultivation assay,[4],around 80%
same,protease inhibition judged from p55 gag related protein bands,[5]; Western blot,did not inhibit the protease
same,inhibition of p24 antigen production versus AZT,"[5]; of 6,6′-bieckol vs AZT 5 μM (FIG. 2C)",comparable to that of AZT
